What was measured:
HepG2 [1] = assay: cells; conditions: Homo sapiens, HepG2, 48 h
Description: Cytotoxicity against human HepG2 cells after 48 hrs by MTT assay

HepG2 [2] = assay: Resistant factor, ratio of IC50 for human doxorubicin-resistant HepG2 cells to IC50 for human HepG2 cells; assay type: functional
NCI-H460 [3] = assay: cells; conditions: Homo sapiens, NCI-H460, 48 h
[4] = biological target: T1, Proteasome Macropain subunit MB1 (Homo sapiens, UniProt P28074); assay: Inhibition of chymotrypsin-like activity of human 20S proteasome using Suc-LLVY-AMC as substrate by fluorometric method
T1 sequence (P28074 whole entry): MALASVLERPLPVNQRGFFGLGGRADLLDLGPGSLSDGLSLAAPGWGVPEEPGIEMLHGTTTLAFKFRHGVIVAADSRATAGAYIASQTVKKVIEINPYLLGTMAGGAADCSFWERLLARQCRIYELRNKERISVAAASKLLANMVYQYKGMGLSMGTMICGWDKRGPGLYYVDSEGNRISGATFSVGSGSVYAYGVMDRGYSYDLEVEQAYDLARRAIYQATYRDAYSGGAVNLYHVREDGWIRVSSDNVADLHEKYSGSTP

L02 = assay: Cytotoxicity against human HL-7702 cells after 48 hrs by MTT assay; assay type: cell-based; conditions: L02, 48 h
NCI-H460 [5] = assay: Resistant factor, ratio of IC50 for human doxorubicin-resistant NCI-H460 cells to IC50 for human NCI-H460 cells; assay type: functional
NCI-H460 [6] = assay: Cytotoxicity against human NCI-H460 cells after 48 hrs by MTT assay; conditions: NCI-H460, 48 h
HepG2 [7] = assay: Cytotoxicity against human doxorubicin-resistant HepG2 cells after 48 hrs by MTT assay; assay type: functional, cell-based; conditions: HepG2, 48 h
[8] = biological target: Proteasome Macropain subunit (Homo sapiens, UniProt P49721); assay: Inhibition of trypsin-like activity of human 20S proteasome using Bz-VGR-AMC as substrate by fluorometric method
Proteasome Macropain subunit, sequence (P49721 whole entry): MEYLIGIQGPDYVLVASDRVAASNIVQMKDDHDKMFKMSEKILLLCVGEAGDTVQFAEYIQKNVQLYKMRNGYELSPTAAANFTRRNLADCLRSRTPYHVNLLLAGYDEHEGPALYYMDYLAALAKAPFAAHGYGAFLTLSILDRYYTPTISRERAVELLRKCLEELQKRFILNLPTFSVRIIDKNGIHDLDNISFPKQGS

NCI-H460 [9] = assay: Induction of apoptosis in doxorubicin-resistant human NCI-H460 cells assessed as late apoptotic/necrotic cells at 4 uM after 24 hrs by Annexin V-PE/7-AAD staining-based flow cytometric analysis (reference value: 2.87%); assay type: functional
NCI-H460 [10] = assay: Induction of apoptosis in doxorubicin-resistant human NCI-H460 cells assessed as damaged cells at 4 uM after 24 hrs by Annexin V-PE/7-AAD staining-based flow cytometric analysis (reference value: 0.493%); assay type: functional
NCI-H460 [11] = assay: Induction of apoptosis in human NCI-H460 cells assessed as damaged cells at 4 uM after 24 hrs by Annexin V-PE/7-AAD staining-based flow cytometric analysis (reference value: 9.98%); assay type: functional
NCI-H460 [12] = assay: Induction of apoptosis in doxorubicin-resistant human NCI-H460 cells assessed as damaged cells at 4 uM after 24 hrs in presence of p-gp inhibitor LY335979 by Annexin V-PE/7-AAD staining-based flow cytometric analysis (reference value: 0.493%); assay type: functional
NCI-H460 [13] = assay: Induction of apoptosis in doxorubicin-resistant human NCI-H460 cells assessed as late apoptotic/necrotic cells at 4 uM after 24 hrs in presence of p-gp inhibitor LY335979 by Annexin V-PE/7-AAD staining-based flow cytometric analysis (reference value: 2.87%); assay type: functional
NCI-H460 [14] = assay: Induction of apoptosis in doxorubicin-resistant human NCI-H460 cells assessed as viable cells at 4 uM after 24 hrs in presence of p-gp inhibitor LY335979 by Annexin V-PE/7-AAD staining-based flow cytometric analysis (reference value: 95.2%); assay type: functional; conditions: NCI-H460, 24 h, read-out: Activity
NCI-H460 [15] = assay: Induction of apoptosis in doxorubicin-resistant human NCI-H460 cells assessed as early apoptotic cells at 4 uM after 24 hrs by Annexin V-PE/7-AAD staining-based flow cytometric analysis (reference value: 1.40%); assay type: functional
NCI-H460 [16] = assay: Induction of apoptosis in human NCI-H460 cells assessed as viable cells at 4 uM after 24 hrs by Annexin V-PE/7-AAD staining-based flow cytometric analysis (reference value: 83%); assay type: functional; conditions: NCI-H460, 24 h, read-out: Activity
NCI-H460 [17] = assay: Induction of apoptosis in doxorubicin-resistant human NCI-H460 cells assessed as viable cells at 4 uM after 24 hrs by Annexin V-PE/7-AAD staining-based flow cytometric analysis (reference value: 95.2%); assay type: functional; conditions: NCI-H460, 24 h, read-out: Activity
NCI-H460 [18] = assay: Induction of apoptosis in doxorubicin-resistant human NCI-H460 cells assessed as early apoptotic cells at 4 uM after 24 hrs in presence of p-gp inhibitor LY335979 by Annexin V-PE/7-AAD staining-based flow cytometric analysis (reference value: 1.40%); assay type: functional
NCI-H460 [19] = assay: Induction of apoptosis in human NCI-H460 cells assessed as early apoptotic cells at 4 uM after 24 hrs in presence of p-gp inhibitor LY335979 by Annexin V-PE/7-AAD staining-based flow cytometric analysis (reference value: 1.33%); assay type: functional
NCI-H460 [20] = assay: Induction of apoptosis in human NCI-H460 cells assessed as damaged cells at 4 uM after 24 hrs in presence of p-gp inhibitor LY335979 by Annexin V-PE/7-AAD staining-based flow cytometric analysis (reference value: 9.98%); assay type: functional
NCI-H460 [21] = assay: Induction of apoptosis in human NCI-H460 cells assessed as late apoptotic/necrotic cells at 4 uM after 24 hrs by Annexin V-PE/7-AAD staining-based flow cytometric analysis (reference value: 5.73%); assay type: functional
NCI-H460 [22] = assay: Induction of apoptosis in human NCI-H460 cells assessed as late apoptotic/necrotic cells at 4 uM after 24 hrs in presence of p-gp inhibitor LY335979 by Annexin V-PE/7-AAD staining-based flow cytometric analysis (reference value: 5.73%); assay type: functional
NCI-H460 [23] = assay: Induction of apoptosis in human NCI-H460 cells assessed as early apoptotic cells at 4 uM after 24 hrs by Annexin V-PE/7-AAD staining-based flow cytometric analysis (reference value: 1.33%); assay type: functional
NCI-H460 [24] = assay: Induction of apoptosis in human NCI-H460 cells assessed as viable cells at 4 uM after 24 hrs in presence of p-gp inhibitor LY335979 by Annexin V-PE/7-AAD staining-based flow cytometric analysis (reference value: 83%); assay type: functional; conditions: NCI-H460, 24 h, read-out: Activity

Row | SMILES | IC50 (HepG2 [1]) | IC50 (NCI-H460 [3]) | IC50 [4] | Ratio IC50 (HepG2 [2]) | IC50 (L02) | Ratio IC50 (NCI-H460 [5]) | IC50 (NCI-H460 [6]) | IC50 (HepG2 [7]) | further results
1 | CC[C@H](C)[C@H](NC(=S)Nc1ccc(Br)cc1)C(=O)N[C@H](Cc1ccccc1)C(=O)Nc1ccc(C)c(Cl)c1 |  |  | > 50 µM |  |  |  |  |  | 
2 | CC[C@H](C)[C@H](NC(=S)Nc1cccc([N+](=O)[O-])c1)C(=O)N[C@H](Cc1ccccc1)C(=O)Nc1ccc(C)c(Cl)c1 |  |  | > 50 µM |  |  |  |  |  | 
3 | CC[C@H](C)[C@H](/N=C(/Nc1cccc([N+](=O)[O-])c1)SC)C(=O)N[C@H](Cc1ccccc1)C(=O)Nc1ccc(C)c(C)c1 |  |  | > 50 µM |  |  |  |  |  | 
4 | CC[C@H](C)[C@H](/N=C(/Nc1cccc(C(F)(F)F)c1)SC)C(=O)N[C@H](Cc1ccccc1)C(=O)Nc1ccc(Cl)c(Cl)c1 |  |  | 22.2 µM |  |  |  |  |  | 
5 | CC[C@H](C)[C@H](NC(=S)Nc1cccc([N+](=O)[O-])c1)C(=O)N[C@H](Cc1ccccc1)C(=O)Nc1ccc(C)c(C)c1 |  |  | > 50 µM |  |  |  |  |  | 
6 | CC[C@H](C)[C@H](NC(=S)Nc1cccc([N+](=O)[O-])c1)C(=O)N[C@H](Cc1ccccc1)C(=O)Nc1cccc(OC)c1 |  |  | 22.3 µM |  |  |  |  |  | 
7 | COc1cccc2c1C(=O)c1c(O)c3c(c(O)c1C2=O)C[C@@](O)(C(=O)CO)C[C@@H]3O[C@H]1C[C@H](N)[C@H](O)[C@H](C)O1 [DOXORUBICIN] | 6.91 µM |  |  |  | 12.2 µM |  |  | > 50 µM | 
8 | CC[C@H](C)[C@H](/N=C(/Nc1cccc(C(F)(F)F)c1)SC)C(=O)N[C@H](Cc1ccccc1)C(=O)Nc1cccc(C(F)(F)F)c1 | 19.3 µM | > 50 µM | 8.83 µM | 2.55 | > 50 µM |  | 20.3 µM | 49.2 µM | IC50 [8]: Not Active
9 | CC[C@H](C)[C@H](NC(=S)Nc1cccc([N+](=O)[O-])c1)C(=O)N[C@H](Cc1ccccc1)C(=O)Nc1cccc(Cl)c1 | 20.7 µM | 31.7 µM | 5.84 µM |  | > 50 µM | 2.32 | 13.6 µM | > 50 µM | 
10 | CC[C@H](C)[C@H](NC(=S)Nc1cccc(C(F)(F)F)c1)C(=O)N[C@H](Cc1ccccc1)C(=O)Nc1cccc(C(F)(F)F)c1 |  |  | 19.6 µM |  |  |  |  |  | 
11 | CC[C@H](C)[C@H](NC(=S)Nc1cccc([N+](=O)[O-])c1)C(=O)N[C@H](Cc1ccccc1)C(=O)Nc1ccc(OC)cc1 |  |  | 29 µM |  |  |  |  |  | 

Further molecules by falling IC50 [4], results first:

Row | IC50 (HepG2 [1]) | IC50 (NCI-H460 [3]) | IC50 [4] | SMILES | Ratio IC50 (HepG2 [2]) | IC50 (L02) | Ratio IC50 (NCI-H460 [5]) | IC50 (NCI-H460 [6]) | IC50 (HepG2 [7]) | further results
12 | 18 µM | 28.6 µM | 3.57 µM | CC[C@H](C)[C@H](NC(=S)Nc1cccc([N+](=O)[O-])c1)C(=O)N[C@H](Cc1ccccc1)C(=O)Nc1cccc(F)c1 | 2.04 | > 50 µM | 2.33 | 12.3 µM | 36.8 µM | 
13 | 17.4 µM | 35.2 µM | 2.71 µM | CC[C@H](C)[C@H](NC(=S)Nc1cccc([N+](=O)[O-])c1)C(=O)N[C@H](Cc1ccccc1)C(=O)Nc1ccc(Br)cc1 | 2.76 | > 50 µM | 2.18 | 16.2 µM | 48.2 µM | 
14 | 17.5 µM | 42.4 µM | 1.97 µM | CC[C@H](C)[C@H](NC(=S)Nc1cccc([N+](=O)[O-])c1)C(=O)N[C@H](Cc1ccccc1)C(=O)Nc1ccc(F)cc1 | 2.78 | > 50 µM | 2.09 | 20.2 µM | 48.5 µM | 
15 | 13.3 µM | 32.3 µM | 1.36 µM | CC[C@H](C)[C@H](NC(=S)Nc1cccc([N+](=O)[O-])c1)C(=O)N[C@H](Cc1ccccc1)C(=O)Nc1ccc(Cl)c(Cl)c1 | 2.82 | > 50 µM | 2.18 | 14.8 µM | 37.4 µM | 
16 | 18.6 µM | 11.2 µM | 0.022 µM | CC[C@H](C)[C@H](NC(=S)Nc1ccc(C(F)(F)F)cc1)C(=O)N[C@H](Cc1ccccc1)C(=O)Nc1cccc(Br)c1 | 1.47 | > 50 µM | 1.58 | 7.13 µM | 27.4 µM | 
17 | 12.1 µM | 15.5 µM | 0.017 µM | CC[C@H](C)[C@H](NC(=S)Nc1cccc(C(F)(F)F)c1)C(=O)N[C@H](Cc1ccccc1)C(=O)Nc1ccc(Cl)c(Cl)c1 | 2.44 | > 50 µM | 2.52 | 6.14 µM | 29.6 µM | IC50 [8]: Not Active
18 | 4.8 µM | 6.74 µM | 0.0086 µM | CC[C@H](C)[C@H](NC(=S)Nc1cccc([N+](=O)[O-])c1)C(=O)N[C@H](Cc1ccccc1)C(=O)Nc1cccc(C(F)(F)F)c1 | 2.12 | > 50 µM | 3.96 | 1.7 µM | 10.2 µM | Activity (NCI-H460 [9]): 5.96%; Activity (NCI-H460 [10]): 1.9%; Activity (NCI-H460 [11]): 4.72%; Activity (NCI-H460 [12]): 5.72%; Activity (NCI-H460 [13]): 29.9%; viability at 4 µM (NCI-H460 [14]): 32.5%; Activity (NCI-H460 [15]): 11.4%; viability at 4 µM (NCI-H460 [16]): 74.2%; viability at 4 µM (NCI-H460 [17]): 80.8%; Activity (NCI-H460 [18]): 31.9%; IC50 [8]: Not Active; Activity (NCI-H460 [19]): 4.86%; Activity (NCI-H460 [20]): 13.9%; Activity (NCI-H460 [21]): 7.76%; Activity (NCI-H460 [22]): 24.2%; Activity (NCI-H460 [23]): 13.3%; viability at 4 µM (NCI-H460 [24]): 57%
